Measured values taken from ChEMBL document CHEMBL1201862, “PubChem BioAssay data set” (2004).
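Values below derive from 48-hour exposures of cells grown in 96-well plates, with endpoints linearly interpolated between the two concentrations bracketing the appropriate inhibition level. GI50 = concentration required for 50% inhibition of growth.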 Active and inactive are the calls of the source. No stated cut-off is given here; in the data, active = GI50 up to about 1.1 µM and inactive = higher.

Tests used:
Assay in all cases: NCI-60 cell line screen, 48 h
[1] = tested on: SNB-19
[2] = tested on: HOP-92
[3] = tested on: MOLT-4
[4] = tested on: UO-31
[5] = tested on: HT-29
[6] = tested on: SN12C
[7] = tested on: SW-620
[8] = tested on: CCRF-CEM
[9] = tested on: A498
[10] = tested on: SK-MEL-28
[11] = tested on: SK-MEL-5
[12] = tested on: NCI-H23
[13] = tested on: KM12
[14] = tested on: SF-268
[15] = tested on: T47D
[16] = tested on: DU-145
[17] = tested on: CAKI-1
[18] = tested on: ACHN
[19] = tested on: SR

Compound	GI50 [1]	GI50 [2]	GI50 [3]	GI50 [4]	GI50 [5]	GI50 [6]	GI50 [7]	GI50 [8]	GI50 [9]	GI50 [10]	GI50 [11]	GI50 [12]	GI50 [13]	GI50 [14]	GI50 [15]	GI50 [16]	GI50 [17]	GI50 [18]	GI50 [19]
O=S(=O)(Nc1nccs1)c1ccc([As](=O)(O)O)cc1	> 100 µM (inactive)	> 100 µM (inactive)	> 100 µM (inactive)	> 100 µM (inactive)	> 100 µM (inactive)	> 100 µM (inactive)	> 100 µM (inactive)	> 100 µM (inactive)	> 100 µM (inactive)	> 100 µM (inactive)	> 100 µM (inactive)	> 100 µM (inactive)	> 100 µM (inactive)	> 100 µM (inactive)	> 100 µM (inactive)	> 100 µM (inactive)	> 100 µM (inactive)	> 100 µM (inactive)	
CC1=CC(=O)/C(=C/Nc2nc(-c3cccc([N+](=O)[O-])c3)cs2)C(=O)O1	> 100 µM (inactive)	> 100 µM (inactive)		29.9 µM (inactive)	89.9 µM (inactive)	66.5 µM (inactive)	43.4 µM (inactive)			> 100 µM (inactive)	54.2 µM (inactive)	60.5 µM (inactive)	47.2 µM (inactive)		77.1 µM (inactive)	> 100 µM (inactive)	24.8 µM (inactive)	46.2 µM (inactive)	
O=CN1CCN(C(=O)c2ccc(Cl)cc2)C1=S	15.6 µM (inactive)	0.714 µM (active)	19.2 µM (inactive)		17.2 µM (inactive)	14.7 µM (inactive)	18 µM (inactive)	12.8 µM (inactive)	14.8 µM (inactive)	19.1 µM (inactive)		23 µM (inactive)	12.7 µM (inactive)	19.2 µM (inactive)	12.8 µM (inactive)	15.7 µM (inactive)	14.1 µM (inactive)	17.3 µM (inactive)	
N#CC(c1ccccc1)N(CCCCCCN(C(=O)c1ccccc1)C(C#N)c1ccccc1)C(=O)c1ccccc1 (stereo not drawn)	44.2 µM (inactive)	16.5 µM (inactive)	34.4 µM (inactive)	18 µM (inactive)	21.8 µM (inactive)	44.9 µM (inactive)	39.3 µM (inactive)	49.8 µM (inactive)	15 µM (inactive)	44.4 µM (inactive)	17.9 µM (inactive)	26.2 µM (inactive)	38.5 µM (inactive)	40.4 µM (inactive)	28.5 µM (inactive)	41.3 µM (inactive)	32.1 µM (inactive)	38.4 µM (inactive)	
CCC[C@H](N[S+]([O-])c1ccc(C)cc1)C(C(=O)OCC)=C(c1ccccc1)c1ccccc1 (stereo partly drawn)	44.3 µM (inactive)	15.1 µM (inactive)	16.2 µM (inactive)	14.8 µM (inactive)	13.9 µM (inactive)	19.8 µM (inactive)	57.4 µM (inactive)	26 µM (inactive)	19.7 µM (inactive)	27.6 µM (inactive)	22.1 µM (inactive)	27.1 µM (inactive)	18.6 µM (inactive)	30.1 µM (inactive)	16.8 µM (inactive)	18.9 µM (inactive)	13.3 µM (inactive)	22.4 µM (inactive)	
NC(=O)NNC(=O)c1nc[nH]c1[N+](=O)[O-]			> 100 µM (inactive)	> 100 µM (inactive)	> 100 µM (inactive)	> 100 µM (inactive)	> 100 µM (inactive)	> 100 µM (inactive)	> 100 µM (inactive)	> 100 µM (inactive)	> 100 µM (inactive)	> 100 µM (inactive)		> 100 µM (inactive)	> 100 µM (inactive)	> 100 µM (inactive)	> 100 µM (inactive)		
CC1=CCC(C(C)(C)NC(=O)c2ccccc2)C/C1=N/O (stereo not drawn)	> 100 µM (inactive)	43.3 µM (inactive)	> 100 µM (inactive)	> 100 µM (inactive)	> 100 µM (inactive)	> 100 µM (inactive)	> 100 µM (inactive)	> 100 µM (inactive)		> 100 µM (inactive)	> 100 µM (inactive)	> 100 µM (inactive)	> 100 µM (inactive)	> 100 µM (inactive)	> 100 µM (inactive)	> 100 µM (inactive)			
Cc1ccc(C(=O)O)cc1S(=O)(=O)Nn1cnc2ccc(S(=O)(=O)Nc3ccccc3C(=O)O)cc2c1=O	> 100 µM (inactive)	> 100 µM (inactive)	> 100 µM (inactive)	46.1 µM (inactive)	> 100 µM (inactive)	> 100 µM (inactive)	> 100 µM (inactive)	> 100 µM (inactive)		> 100 µM (inactive)		> 100 µM (inactive)	10.9 µM (inactive)	> 100 µM (inactive)		> 100 µM (inactive)	> 100 µM (inactive)	> 100 µM (inactive)	> 100 µM (inactive)
O=c1oc(-c2ccc(O)cc2)cc2cc(O)ccc12	20.6 µM (inactive)	21.7 µM (inactive)	18.5 µM (inactive)	13.3 µM (inactive)		17.2 µM (inactive)	25.7 µM (inactive)	20.4 µM (inactive)	14.7 µM (inactive)		11.2 µM (inactive)	20.9 µM (inactive)	24.8 µM (inactive)	26.5 µM (inactive)	19.9 µM (inactive)	39 µM (inactive)	29.1 µM (inactive)	34.9 µM (inactive)	
CCOc1ccc(N/C(=C(/C(Cl)=C(/Cl)NCCO)[N+](=O)[O-])n2nnc3ccccc32)cc1	51.1 µM (inactive)		5.96 µM (inactive)	19.5 µM (inactive)	29.9 µM (inactive)	19.8 µM (inactive)	19.2 µM (inactive)	5.57 µM (inactive)	31 µM (inactive)	18.7 µM (inactive)		17.5 µM (inactive)	24.8 µM (inactive)	20.1 µM (inactive)	18.2 µM (inactive)	12.9 µM (inactive)	14.4 µM (inactive)	19.5 µM (inactive)	
Cc1cc(C)nc(NS(=O)(=O)c2ccc(NC(=O)c3c4ccccc4nc4ccccc34)cc2)n1	> 100 µM (inactive)	> 100 µM (inactive)	> 100 µM (inactive)	37.4 µM (inactive)	50.8 µM (inactive)	> 100 µM (inactive)	> 100 µM (inactive)	> 100 µM (inactive)	> 100 µM (inactive)	> 100 µM (inactive)	38.1 µM (inactive)	44.2 µM (inactive)	47 µM (inactive)	> 100 µM (inactive)		93.1 µM (inactive)	87.3 µM (inactive)	84.7 µM (inactive)	> 100 µM (inactive)
CC(C)(CN1CCCCC1)C(=O)CC(SCCS(=O)(=O)O)c1ccc(Cl)cc1 (stereo not drawn)	14.8 µM (inactive)	2.26 µM (inactive)	2.92 µM (inactive)	4.86 µM (inactive)	3.52 µM (inactive)	4.56 µM (inactive)	4.1 µM (inactive)	2.74 µM (inactive)	4.26 µM (inactive)		7.41 µM (inactive)	3.88 µM (inactive)	4.31 µM (inactive)			9.75 µM (inactive)	6.73 µM (inactive)	5.11 µM (inactive)	2.18 µM (inactive)
CC1(C)Cc2c(c3ccccc3c3nc4c(nc23)c2c(c3ccccc34)OC(C)(C)C2)O1	> 100 µM (inactive)	> 100 µM (inactive)	> 100 µM (inactive)		> 100 µM (inactive)	> 100 µM (inactive)	> 100 µM (inactive)	> 100 µM (inactive)	> 100 µM (inactive)	> 100 µM (inactive)	> 100 µM (inactive)	> 100 µM (inactive)	> 100 µM (inactive)	> 100 µM (inactive)	> 100 µM (inactive)	> 100 µM (inactive)	> 100 µM (inactive)	> 100 µM (inactive)	
COc1ccc2cc(C(C)C(O)c3cc(F)c(F)c(F)c3F)ccc2c1 (stereo not drawn)	> 100 µM (inactive)	18.6 µM (inactive)	> 10 µM (inactive)	86.5 µM (inactive)	> 100 µM (inactive)	> 100 µM (inactive)	> 100 µM (inactive)	> 100 µM (inactive)	> 100 µM (inactive)	> 100 µM (inactive)	> 100 µM (inactive)	49.8 µM (inactive)		76.4 µM (inactive)	53.5 µM (inactive)	> 100 µM (inactive)		42.9 µM (inactive)	
Cc1nc2c(O)cc3c4c(n(Cc5ccccc5)c3c2nc1C)C(=O)CCC4	23.3 µM (inactive)	15.4 µM (inactive)	> 100 µM (inactive)	56 µM (inactive)	> 100 µM (inactive)	> 100 µM (inactive)	> 100 µM (inactive)	> 100 µM (inactive)	34 µM (inactive)	22.5 µM (inactive)	25.5 µM (inactive)	51.2 µM (inactive)	> 100 µM (inactive)	4.71 µM (inactive)		7.13 µM (inactive)		25.2 µM (inactive)	18 µM (inactive)
O=C(O)C(O)C(O)C(O)C(O)c1nc2ccccc2s1 (stereo not drawn)	20.1 µM (inactive)	18.2 µM (inactive)		15.9 µM (inactive)	21.2 µM (inactive)	18.7 µM (inactive)	22.3 µM (inactive)	3.53 µM (inactive)	24.6 µM (inactive)	20.3 µM (inactive)	25.8 µM (inactive)	23.2 µM (inactive)	24.7 µM (inactive)	14.9 µM (inactive)	19.5 µM (inactive)	16.8 µM (inactive)	17.7 µM (inactive)	17.7 µM (inactive)	
Nc1nc(-c2ccccc2)nc2c1[n+]([O-])c1ccccc1[n+]2[O-]	> 100 µM (inactive)			> 100 µM (inactive)	> 100 µM (inactive)	> 100 µM (inactive)	> 100 µM (inactive)	> 100 µM (inactive)	> 100 µM (inactive)	> 100 µM (inactive)	83.4 µM (inactive)	> 100 µM (inactive)	> 100 µM (inactive)	> 100 µM (inactive)	> 100 µM (inactive)	> 100 µM (inactive)	> 100 µM (inactive)	> 100 µM (inactive)	
